# Reference: US8808702B2, “Sulfide, sulfoxide and sulfone chalcone analogues, derivatives thereof and therapeutic uses thereof” (Temple University-of the Commonwealth System of Higher …, priority 2006, dated 2014)
# Read-outs that look alike come from different tables or passages of the source.
# Tests used:
# DU145 (prostate cancer) = assay: Effect of compounds on tumor cell lines (assay of Latham et al.), DU145; type: cell-based; details: Homo sapiens, DU-145, DU145 cells, examined 96 hours after treatment, 1 μM to 100 μM in DMSO, read-out: DU 145 potency (IC50)
# In short: (§1)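 After 96 h of exposure to compound (1–100 μM in DMSO; one compound at 0.1–100 μM), effects were scored by inverted-microscope inspection, with trypan blue viable counts by hemacytometer when required. Cells were seeded at 2.5×10^4 per well and dosed 24 h after plating.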
# [1] = system: K562 (chronic myelogenous leukaemia); assay: Effect of compounds on tumor cell lines (assay of Latham et al.), K562; type: cell-based; details: Homo sapiens, K562 cells, examined 96 hours after treatment, 1 μM to 100 μM in DMSO, read-out: K 562 potency (IC50)
# In short: as §1
SMILES,IC50 (DU145 (prostate cancer); Table 1),melting point,IC50 ([1]; Table 1),IC50 (DU145 (prostate cancer); Table 4),IC50 ([1]; Table 4)
"O=C(/C(=C\c1ccc(I)cc1)Sc1ccc(Br)cc1)c1ccc(Br)cc1 [Example 45, (E)-1-(4-bromophenyl)-2-(4-bromophenylthio)-3-(4-Iodophenyl)-prop-2-en-1-one]",1 to 10 µM,128 to 130 °C,1 to 10 µM,–,–
Cc1ccc(/C=C(\C(=O)c2ccc(Cl)cc2)S(=O)(=O)Cc2ccc(Cl)cc2Cl)s1 [Example 356],–,115 to 117 °C,–,10 to 25 µM,25 to 50 µM
COc1cc(OC)c(/C=C(\C(=O)c2ccc(Cl)cc2)S(=O)(=O)Cc2ccccc2Cl)c(OC)c1 [Example 357],–,185 to 192 °C,–,> 100 µM,25 to 50 µM
O=C(/C(=C\c1ccccc1OCc1ccccc1)S(=O)(=O)Cc1ccccc1Cl)c1ccc(Cl)cc1 [Example 358],–,137 to 148 °C,–,1 to 10 µM,1 to 10 µM
COc1cc(/C=C(\C(=O)c2ccc(Cl)cc2)S(=O)(=O)Cc2ccccc2Cl)cc(OC)c1 [Example 359],–,133 to 138 °C,–,> 100 µM,50 to 100 µM
O=C(/C(=C\c1ccc(Br)cc1)S(=O)(=O)Cc1ccccc1Cl)c1ccc(Cl)cc1 [Example 360],–,186 to 192 °C,–,25 to 50 µM,25 to 50 µM
CCOc1ccc(/C=C(\C(=O)c2ccc(Cl)cc2)S(=O)(=O)Cc2ccccc2Cl)cc1OC [Example 361],–,123 to 128 °C,–,10 to 25 µM,10 to 25 µM
O=C(/C(=C\c1ccc(O)c([N+](=O)[O-])c1)S(=O)(=O)Cc1ccccc1Cl)c1ccc(Cl)cc1 [Example 362],–,222 to 226 °C,–,–,–
COc1ccc(/C=C(\C(=O)c2ccc(Cl)cc2)S(=O)(=O)Cc2ccccc2Cl)cc1 [Example 363],–,195 to 210 °C,–,–,–
COc1ccccc1/C=C(\C(=O)c1ccc(Cl)cc1)S(=O)(=O)Cc1ccc(Cl)c(Cl)c1 [Example 364],–,154 to 157 °C,–,1 to 10 µM,1 to 10 µM
O=C(/C(=C\c1ccc(O)cc1)S(=O)(=O)Cc1ccc(Cl)c(Cl)c1)c1ccc(Cl)cc1 [Example 366],–,195 to 198 °C,–,10 to 25 µM,10 to 25 µM
COc1ccc(C(=O)/C(=C\c2ccc(Br)cc2)S(=O)(=O)Cc2ccc(Br)cc2)cc1 [Example 371],–,146 to 148 °C,–,1 to 10 µM,1 to 10 µM
O=C(/C(=C\c1ccc(O)c([N+](=O)[O-])c1)S(=O)(=O)Cc1ccc(Br)cc1)c1ccc(Br)cc1 [Example 374],–,110 to 112 °C,–,10 to 25 µM,1 to 10 µM
COc1ccc(/C=C(\C(=O)c2ccc(Cl)cc2)S(=O)(=O)Cc2ccc(Cl)cc2)c(OC)c1OC [Example 375],–,148 to 151 °C,–,10 to 25 µM,1 to 10 µM
O=C(/C(=C\c1cc(Cl)cc(Cl)c1Cl)S(=O)(=O)Cc1ccc(Cl)cc1)c1ccc(Br)cc1 [Example 376],–,181 to 188 °C,–,1 to 10 µM,1 to 10 µM
O=C(/C(=C\c1c(O)cc(O)cc1O)S(=O)(=O)Cc1ccc(Cl)cc1)c1ccc(Cl)cc1 [Example 377],–,232 to 236 °C,–,> 100 µM,> 100 µM
COc1cc(OC)c(/C=C(\C(=O)c2ccc(Br)cc2)S(=O)(=O)Cc2ccc(Cl)cc2)c(OC)c1 [Example 378],–,207 to 210 °C,–,25 to 50 µM,25 to 50 µM
COc1cc(OC)c(/C=C(\C(=O)c2ccc([N+](=O)[O-])cc2)S(=O)(=O)Cc2ccc(Cl)cc2)c(OC)c1 [Example 379],–,62 to 64 °C,–,10 to 25 µM,10 to 25 µM
Cc1ccc(C)c(/C=C(\C(=O)c2ccc(Cl)cc2)S(=O)(=O)Cc2ccc(Cl)cc2)c1 [Example 380],–,129 to 136 °C,–,10 to 25 µM,10 to 25 µM
O=C(/C(=C\c1ccccc1OCc1ccccc1)S(=O)(=O)Cc1ccc(Cl)cc1)c1ccc(Br)cc1 [Example 381],–,136 to 142 °C,–,10 to 25 µM,1 to 10 µM
COc1ccc(/C=C(\C(=O)c2ccc(Br)cc2)S(=O)(=O)Cc2ccc(Cl)cc2)c(O)c1 [Example 382],–,72 to 78 °C,–,10 to 25 µM,10 to 25 µM

SMILES,IC50 (DU145 (prostate cancer); Table 1),melting point,IC50 ([1]; Table 1),IC50 (DU145 (prostate cancer); Table 4),IC50 ([1]; Table 4)
COc1ccccc1/C=C(\C(=O)c1ccc(Cl)cc1)S(=O)(=O)Cc1ccc(Cl)cc1 [Example 383],–,135 to 142 °C,–,25 to 50 µM,25 to 50 µM
COc1ccccc1/C=C(\C(=O)c1ccc([N+](=O)[O-])cc1)S(=O)(=O)Cc1ccc(Cl)cc1 [Example 384],–,136 to 141 °C,–,10 to 25 µM,10 to 25 µM
Cc1cc(C)cc(/C=C(\C(=O)c2ccc(Cl)cc2)S(=O)(=O)Cc2ccc(Cl)cc2)c1 [Example 385],–,146 to 152 °C,–,1 to 10 µM,1 to 10 µM
CCOc1cc(/C=C(\C(=O)c2ccc(Cl)cc2)S(=O)(=O)Cc2ccc(Cl)cc2)ccc1O [Example 386],–,134 to 139 °C,–,10 to 25 µM,10 to 25 µM
COc1ccsc1/C=C(\C(=O)c1ccc(Br)cc1)S(=O)(=O)Cc1ccc(Cl)cc1 [Example 387],–,128 to 136 °C,–,50 to 100 µM,25 to 50 µM
Cc1ccsc1/C=C(\C(=O)c1ccc(Cl)cc1)S(=O)(=O)Cc1ccc(Cl)cc1 [Example 388],–,130 to 139 °C,–,25 to 50 µM,25 to 50 µM
Cc1ccsc1/C=C(\C(=O)c1ccc([N+](=O)[O-])cc1)S(=O)(=O)Cc1ccc(Cl)cc1 [Example 389],–,174 to 179 °C,–,1 to 10 µM,1 to 10 µM
CN(C)c1ccc(/C=C(\C(=O)c2ccc(C(=O)O)cc2)S(=O)(=O)Cc2ccc(Cl)cc2)cc1 [Example 390],–,176 to 180 °C,–,–,–
O=C(/C(=C\c1ccc(OCc2ccccc2)cc1)S(=O)(=O)Cc1ccc(Cl)cc1)c1ccc(Cl)cc1 [Example 391],–,91 to 99 °C,–,1 to 10 µM,1 to 10 µM
O=C(/C(=C\c1ccc(Br)cc1)S(=O)(=O)Cc1ccc(Cl)cc1)c1ccc(Cl)cc1 [Example 392],–,100 to 103 °C,–,10 to 25 µM,10 to 25 µM
CSc1ccc(/C=C(\C(=O)c2ccc(Cl)cc2)S(=O)(=O)Cc2ccc(Cl)cc2)cc1 [Example 394],–,94 to 108 °C,–,10 to 25 µM,10 to 25 µM
COc1ccc(/C=C(\C(=O)c2ccc(Br)cc2)S(=O)(=O)Cc2ccc(Cl)cc2)cc1 [Example 395],–,152 to 155 °C,–,25 to 50 µM,10 to 25 µM
Cc1ccc(/C=C(\C(=O)c2ccc(Cl)cc2)S(=O)(=O)Cc2ccc(Cl)cc2)s1 [Example 396],–,148 to 152 °C,–,1 to 10 µM,1 to 10 µM
O=C(/C(=C\c1ccccc1OCc1ccccc1)S(=O)(=O)Cc1ccc(F)cc1)c1ccc(Cl)cc1 [Example 402],–,139 to 145 °C,–,–,–
COc1ccccc1/C=C(\C(=O)c1ccc(Br)cc1)S(=O)(=O)Cc1ccc(F)cc1 [Example 404],–,145 to 151 °C,–,–,–
O=C(/C(=C\c1ccc(O)cc1)S(=O)(=O)Cc1ccc(F)cc1)c1ccc(Br)cc1 [Example 413],–,188 to 192 °C,–,–,–
COc1ccc(/C=C(\C(=O)c2ccc(Br)cc2)S(=O)(=O)Cc2ccc(F)cc2)cc1 [Example 415],–,121 to 123 °C,–,–,–
Cc1ccc(/C=C(\C(=O)c2ccc(Br)cc2)S(=O)(=O)Cc2ccc(F)cc2)s1 [Example 416],–,156 to 161 °C,–,–,–
Cc1ccc(/C=C(\C(=O)c2ccc(Cl)cc2)S(=O)(=O)Cc2ccc(F)cc2)s1 [Example 417],–,116 to 120 °C,–,–,–
"COc1ccc(CS(=O)(=O)/C(=C/c2c(OC)cc(OC)cc2OC)C(=O)c2ccc(OC)cc2)cc1 [Example 422, (E)-1-(4-methoxyphenyl)-2-(4-methoxybenzylsulfonyl)-3-(2,4,6-trimethoxyphenyl)-prop-2-en-1-one]",–,60 to 62 °C,–,–,–
